Values quoted from earlier work, collected in patent US6423697B1, “Intraoral topical anti-inflammatory treatment for relief of migraine, tension-type headache, post-traumatic headache, facial pain, and cervical-muscle spasm” (priority 1999, dated 2002).

Tests used:
[1] = oral medication

Row | time to peak plasma levels (oral administration) [h] | plasma half-life (in vivo) [h] | time peak plasma levels are maintained (oral administration) [h] | Compound | effectiveness for headache [1]
1 | 0.5 to 2 |  |  | 2-(3benzoxyphenyl)-propionic acid [Ketoprofen] | 
2 | 1 to 2 | 4.7 to 9 | 4 to 6 | CC(=O)Oc1ccccc1C(=O)O [Aspirin, salicylic acetate] | mildly effective
3 |  |  |  | COc1ccc2cc([C@H](C)C(=O)O)ccc2c1 [Naproxen, 6-methoxy methyl-2-naphtalene acetic acid] | mildly effective
4 | 1 to 2 |  |  | CC(C)Cc1ccc(C(C)C(=O)O)cc1 (centres unmarked) [Ibuprofen, 2-(p-Isobutylphenyl) propionic acid] | mildly effective
